Experimental data published in US20230149510A1, “METHOD FOR ALLEVIATING ARTHRITIS USING EPIDERMAL GROWTH FACTOR” (Lovin BioMed Co., Ltd., priority 2021, published 2023).

Tested on: serum COMP, TNF-α, IL-1β, IL-6, IL-17A, PGE2 and NO in MIA-induced OA
Assay: OA biomarkers and inflammatory markers in serum sample (ELISA, Griess assay), MIA-induced OA
Type: in vivo, Sprague Dawley rats
Settings: rat serum; for content of cartilage oligomeric matrix protein (COMP): day 28, FIG. 3; for content of IL-1β / content of IL-6 / content of IL-17A / content of TNF-α: day 28, FIG. 4; for content of PGE2: day 28, FIG. 5; for content of NO: day 28, Griess assay, FIG. 5
Method: The Sprague Dawley rats were divided into five groups, including one normal control group, one pathological control group, one comparative group, and two experimental groups (i.e., experimental groups 1 to 2) (n=5 rats in each group).
The right knee joint of the respective rat in the pathological control group, the comparative group, and the experimental groups 1 and 2 was intraarticularly injected with 30 μL of a monosodium iodoacetate (MIA) solution (50 g/L, in 0.9% normal saline). In addition, the right knee joint of the respective rat in the normal control group was intraarticularly injected with 30 μL of 0.9% normal saline.
On day 3 and day 14 after injection of the MIA solution, the right knee joint of the respective rat in the comparative group was intraarticularly injected with 30 μL of 1% HA, the right knee joint of the respective rat in the experimental group 1 was intraarticularly injected with 30 μL of the EGF solution (containing 20 μg/g EGF), the right knee joint of the respective rat in the experimental group 2 was intraarticularly injected with 30 μL of the mixture solution (containing 20 μg/g EGF), and the right knee joint of the respective rat in the pathological control group was intraarticularly injected with 30 μL of 0.9% normal saline. In addition, the rats of the normal control group received no treatment.
After determining the diameter of right knee joint at the end of day 28 as described in section D of this example, the rats in each group were sacrificed by virtue of 95% CO2 asphyxiation. Next, a blood sample was collected from the heart of each rat through arterial puncture using a 25G needle, and was then subjected to centrifugation at 1,500 g and 25° C. for 10 minutes, so as to obtain a serum sample. Thereafter, the right knee joint tissue of the respective rat in each group was obtained from each rat carcass and was washed with 0.9% normal saline.
The respective serum sample obtained in section E of this example was diluted 5-fold with RPMI 1640 medium. Thereafter, the content of cartilage oligomeric matrix protein (COMP) was determined using a rat COMP ELISA Kit (Cusabio, Cat. No. CSB-E13833r) in accordance with the manufacturer's instructions. In addition, the contents of TNF-α, IL-1β, IL-6, and IL-17A were respectively determined using a TNF-α ELISA Kit (Invitrogen, Cat. No. 88-7340-88), an IL-1β ELISA Kit (Invitrogen, Cat. No. 88-6010-22), an IL-6 ELISA Kit (Invitrogen, Cat. No. 88-50625-88), and an IL-17A ELISA Kit (Invitrogen, Cat. No. 88-7170-22) in accordance with the manufacturer's instructions. The content of prostaglandin E2 (PGE2) was determined using a PGE2 ELISA Kit (Cusabio, Cat. No. CSB-E07967r) in accordance with the manufacturer's instructions.
Moreover, the content of nitric oxide (NO) was determined using the Griess assay. Briefly, 100 μL of the respective serum sample obtained in section E of this example was mixed with 100 μL of a Griess reagent (containing 0.2% N-(1-Naphthyl)ethylenediamine, 2% sulfanilamide, and 5% phosphoric acid), followed by being left standing for reaction to proceed at room temperature for 10 minutes. The resultant reaction mixture was subsequently subjected to determination of absorbance at a wavelength of 540 nm (OD540) using a spectrophotometer. The OD540 values obtained were subsequently converted to concentration expressed in pg/mL based on a correlation curve previously prepared by plotting different known concentrations of sodium nitrate standards versus OD540 values thereof.
The data thus obtained were analyzed according to the method described in section 1 of “General Procedures”.

Substance | content of cartilage oligomeric matrix protein (COMP) | content of IL-1β | content of IL-6 | content of IL-17A | content of TNF-α | content of PGE2 | content of NO
EGF: Epidermal growth factor (Cat. No. 02-108, Joycom Bio-chem) dissolved in PBS, 20 μg/g EGF; given to experimental group 1 (NSDSECPLSHDGYCLHDGVCMYIEALDKYACNCVVGYIGERCQYRDLKWWELR; UniProt P01133 971-1023, looked up) | lower than that determined in the pathological control group | lower than those determined in the pathological control group | lower than those determined in the pathological control group | lower than those determined in the pathological control group | lower than those determined in the pathological control group | lower than those determined in the pathological control group | lower than those determined in the pathological control group
hyaluronic acid [HA, reference compound] | lower than that determined in the pathological control group | lower than those determined in the pathological control group | lower than those determined in the pathological control group | lower than those determined in the pathological control group | lower than those determined in the pathological control group | lower than those determined in the pathological control group | lower than those determined in the pathological control group
